Source: patent US11214594B2, “Antimicrobial peptide having synergistic antibacterial effect with antibiotics on multidrug resistant bacteria, and use thereof” (priority 2016, dated 2022)
Converted amounts (≈) assume the structure as drawn. Read-outs that look alike come from different tables or passages of the source. Where a SMILES comes first, the peptide text is derived from it.

Assays:
[1] = system: E. coli; experiment: microbe, parasite or virus in culture; assay type: cell-based, Escherichia coli
Summary of the method: (§1)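 Peptides were serially diluted twofold in Mueller-Hinton medium and combined 1:1 with bacterial suspensions prepared at 2×10^6 CFU. Readout was the minimal inhibitory concentration, i.e. the lowest concentration with no growth.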

[2] = system: MDREC 1229; experiment: microbe, parasite or virus in culture; assay type: cell-based, Escherichia coli
Summary of the method: as §1

[3] = system: MDREC 1229; experiment: MIC of antibiotic during combined treatment with antimicrobial peptide; assay type: cell-based, Escherichia coli
Summary of the method: (§2)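 Broth microdilution in MH medium; strains were diluted to 2×10^6 CFU per ml before plating. Peptide was serially diluted stepwise at 2:1 starting from its MIC, and MH-diluted antibiotic was then added to determine MIC. The reversed arrangement was also tested.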

[4] = system: P. aeruginosa; experiment: microbe, parasite or virus in culture; assay type: cell-based, Pseudomonas aeruginosa
Summary of the method: as §1

[5] = system: MDRAB 12035; experiment: MIC of antimicrobial peptide during combined treatment with antibiotic; assay type: cell-based, Acinetobacter baumannii
Summary of the method: as §2

[6] = system: A. baumannii; experiment: as above; assay type: cell-based, Acinetobacter baumannii
Summary of the method: as §2

[7] = system: A. baumannii; experiment: MIC of antibiotic during combined treatment with antimicrobial peptide; assay type: cell-based, Acinetobacter baumannii; conditions: for Antibiotic MIC, Erythromycin / Antibiotic MIC, Linezolid / Antibiotic MIC, Vancomycin: A. baumannii
Summary of the method: (§3)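 First, antibiotic solution is diluted with MH medium; next, the dilution is dispensed into wells containing peptide; finally, the orientation is swapped and MIC of each mixture determined.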

[8] = system: E. coli; experiment: as above; assay type: cell-based, Escherichia coli; conditions: for Antibiotic MIC, Erythromycin / Antibiotic MIC, Linezolid / Antibiotic MIC, Vancomycin: E. coli
Summary of the method: as §3

[9] = system: B. subtilis; experiment: microbe, parasite or virus in culture; assay type: cell-based, Bacillus subtilis
Summary of the method: as §1

[10] = system: MDRST 8009; assay type: cell-based, Salmonella typhimurium; conditions: agent alone
Summary of the method: as §1

[11] = system: E. coli; assay type: cell-based, Escherichia coli; conditions: E. coli
Summary of the method: as §2

[12] = system: MDREC 1229; assay type: cell-based, Escherichia coli
Summary of the method: as §2

[13] = system: S. epidermidis; experiment: microbe, parasite or virus in culture; assay type: cell-based, Staphylococcus epidermidis
Summary of the method: as §1

[14] = peptide treatment concentration 1 μg/ml
[15] = peptide treatment concentration 2 μg/ml
[16] = peptide treatment concentration 4 μg/ml
[17] = peptide treatment concentration 6 μg/ml
[18] = peptide treatment concentration 8 μg/ml
[19] = peptide treatment concentration 16 μg/ml
[20] = peptide treatment concentration 32 μg/ml
[21] = peptide treatment concentration 64 μg/ml
[22] = erythromycin 4 μg/ml (Conc./MIC 1/8)
[23] = erythromycin 8 μg/ml (Conc./MIC 1/4)
[24] = erythromycin 16 μg/ml (Conc./MIC 1/2)
[25] = erythromycin 32 μg/ml (Conc./MIC 1)
[26] = vancomycin 512 μg/ml (Conc./MIC 1/2)
[27] = vancomycin 1024 μg/ml (Conc./MIC 1)
[28] = combined with peptide at 1 μg/ml
[29] = combined with peptide at 2 μg/ml
[30] = combined with peptide at 4 μg/ml
[31] = combined with peptide at 6 μg/ml
[32] = combined with peptide at 8 μg/ml
[33] = combined with peptide at 16 μg/ml
[34] = combined with peptide at 32 μg/ml
[35] = combined with peptide at 64 μg/ml
[36] = with Erythromycin […] (Conc./MIC 1)

CC[C@H](C)[C@H](NC(=O)[C@H](CCCCN)NC(=O)[C@H](Cc1c[nH]c2ccccc12)NC(=O)[C@@H](N)CCCNC(=N)N)C(=O)N[C@@H](Cc1ccccc1)C(=O)N[C@@H](CCCCN)C(=O)N[C@@H](CCCCN)C(=O)N[C@H](C(=O)N1CCC[C@H]1C(=O)N[C@@H](CCCCN)C(=O)N[C@@H](CC(C)C)C(=O)N[C@@H](CC(C)C)C(=O)N[C@@H](Cc1c[nH]cn1)C(=O)N[C@@H](CO)C(=O)N[C@@H](C)C(=O)N[C@@H](CCCCN)C(=O)N[C@@H](CCCCN)C(=O)N[C@@H](Cc1c[nH]c2ccccc12)C(N)=O)[C@@H](C)CC [PapMA-9, RWK IFK KIP KLL HSA KKW-NH2] (H-RWKIFKKIPKLLHSAKKW-NH2; N-terminus assumed)
Minimal inhibitory concentration MIC ([1]; 16 h): 32 µg/mL (≈ 13.9 µM) | Antibacterial activity relative to PapMA-1 ([1]; E. coli): at least twice as high | Minimal inhibitory concentration MIC [2]: 64 µg/mL (≈ 27.7 µM) | Antibiotic MIC, Erythromycin [3, 14]: 64 µg/mL | Antibiotic MIC, Linezolid [3, 14]: 128 µg/mL | Antibiotic MIC, Vancomycin [3, 14]: >128 µg/mL | Antibiotic MIC, Erythromycin [3, 15]: 64 µg/mL | Antibiotic MIC, Linezolid [3, 15]: 64 µg/mL | Antibiotic MIC, Vancomycin [3, 15]: >128 µg/mL | Antibiotic MIC, Erythromycin [3, 16]: 8 µg/mL | Antibiotic MIC, Linezolid [3, 16]: 32 µg/mL | Antibiotic MIC, Vancomycin [3, 16]: 128 µg/mL | Antibiotic MIC, Erythromycin [3, 17]: 2 µg/mL | Antibiotic MIC, Linezolid [3, 17]: 16 µg/mL | Antibiotic MIC, Vancomycin [3, 17]: 32 µg/mL | Antibiotic MIC, Erythromycin [3, 18]: 1 µg/mL | Antibiotic MIC, Linezolid [3, 18]: 8 µg/mL | Antibiotic MIC, Vancomycin [3, 18]: 8 µg/mL | Antibiotic MIC, Erythromycin [3, 19]: 0.5 µg/mL | Antibiotic MIC, Linezolid [3, 19]: 4 µg/mL | Antibiotic MIC, Vancomycin [3, 19]: 4 µg/mL | Antibiotic MIC, Erythromycin [3, 20]: 0.125 µg/mL | Antibiotic MIC, Linezolid [3, 20]: 2 µg/mL | Antibiotic MIC, Vancomycin [3, 20]: 2 µg/mL | Antibiotic MIC, Erythromycin [3, 21]: 0 µg/mL | Antibiotic MIC, Linezolid [3, 21]: 0 µg/mL | Antibiotic MIC, Vancomycin [3, 21]: 0 µg/mL | Minimal inhibitory concentration MIC [4]: 8 µg/mL (≈ 3.47 µM) | Peptide MIC during treatment with erythromycin [5, 22]: 4 µg/mL | Peptide MIC during treatment with erythromycin [5, 23]: 4 µg/mL | Peptide MIC during treatment with erythromycin [5, 24]: 1 µg/mL | Peptide MIC during treatment with erythromycin [5, 25]: 0 µg/mL | Peptide MIC during treatment with linezolid ([5]; linezolid 64 μg/ml (Conc./MIC 1/8)): 2 µg/mL | Peptide MIC during treatment with linezolid ([5]; linezolid 512 μg/ml (Conc./MIC 1)): 0 µg/mL | Peptide MIC during treatment with linezolid ([5]; linezolid […] (Conc./MIC 1/2)): 1 µg/mL | Peptide MIC during treatment with linezolid ([5]; linezolid […] (Conc./MIC 1/4)): 2 µg/mL | Peptide MIC during treatment with vancomycin [5, 26]: 1 µg/mL | Peptide MIC during treatment with vancomycin [5, 27]: 0.25 µg/mL | Peptide MIC during treatment with vancomycin ([5]; vancomycin […] (Conc./MIC 1/4)): 1 µg/mL | Peptide MIC during treatment with vancomycin ([5]; vancomycin […] (Conc./MIC 1/8)): 2 µg/mL | Peptide MIC during treatment with antibiotic [6, 22]: 4 µg/mL | Peptide MIC during treatment with antibiotic [6, 23]: 2 µg/mL | Peptide MIC during treatment with antibiotic [6, 24]: 2 µg/mL | Peptide MIC during treatment with antibiotic [6, 25]: 0 µg/mL | Peptide MIC during treatment with antibiotic ([6]; linezolid 32 μg/ml (Conc./MIC 1/8)): 4 µg/mL | Peptide MIC during treatment with antibiotic ([6]; linezolid 64 μg/ml (Conc./MIC 1/4)): 4 µg/mL | Peptide MIC during treatment with antibiotic ([6]; linezolid […] (Conc./MIC 1)): 0 µg/mL | Peptide MIC during treatment with antibiotic ([6]; linezolid […] (Conc./MIC 1/2)): 2 µg/mL | Peptide MIC during treatment with antibiotic [6, 26]: 0.25 µg/mL | Peptide MIC during treatment with antibiotic [6, 27]: 0 µg/mL | Peptide MIC during treatment with antibiotic ([6]; vancomycin […] (Conc./MIC 1/4)): 0.5 µg/mL | Peptide MIC during treatment with antibiotic ([6]; vancomycin […] (Conc./MIC 1/8)): 2 µg/mL | Synergistic effect of antibacterial activity with existing antibiotics compared with PapMA-1 ([7]; A. baumannii and MDRAB 12035): higher level than the PapMA-1 peptide | Antibiotic MIC, Erythromycin [7, 28]: 32 µg/mL | Antibiotic MIC, Linezolid [7, 28]: >128 µg/mL | Antibiotic MIC, Vancomycin [7, 28]: >128 µg/mL | Antibiotic MIC, Erythromycin [7, 29]: 8 µg/mL | Antibiotic MIC, Linezolid [7, 29]: 128 µg/mL | Antibiotic MIC, Vancomycin [7, 29]: 128 µg/mL | Antibiotic MIC, Erythromycin [7, 30]: 4 µg/mL | Antibiotic MIC, Linezolid [7, 30]: 8 µg/mL | Antibiotic MIC, Vancomycin [7, 30]: 32 µg/mL | Antibiotic MIC, Erythromycin [7, 31]: 2 µg/mL | Antibiotic MIC, Linezolid [7, 31]: 8 µg/mL | Antibiotic MIC, Vancomycin [7, 31]: 16 µg/mL | Antibiotic MIC, Erythromycin [7, 32]: 0.25 µg/mL | Antibiotic MIC, Linezolid [7, 32]: 2 µg/mL | Antibiotic MIC, Vancomycin [7, 32]: 8 µg/mL | Antibiotic MIC, Erythromycin [7, 33]: 0.125 µg/mL | Antibiotic MIC, Linezolid [7, 33]: 0.5 µg/mL | Antibiotic MIC, Vancomycin [7, 33]: 2 µg/mL | Antibiotic MIC, Erythromycin [7, 34]: 0 µg/mL | Antibiotic MIC, Linezolid [7, 34]: 0 µg/mL | Antibiotic MIC, Vancomycin [7, 34]: 0 µg/mL | Antibiotic MIC, Erythromycin [7, 35]: 0 µg/mL | Antibiotic MIC, Linezolid [7, 35]: 0 µg/mL | Antibiotic MIC, Vancomycin [7, 35]: 0 µg/mL | Synergistic effect of antibacterial activity with existing antibiotics compared with PapMA-1 ([8]; E. coli and MDREC1229): higher level than the PapMA-1 peptide | Antibiotic MIC, Erythromycin ([8]; erythromycin combined with peptide at 1 μg/ml): 128 µg/mL | Antibiotic MIC, Erythromycin ([8]; erythromycin combined with peptide at 2 μg/ml): 64 µg/mL | Antibiotic MIC, Erythromycin ([8]; erythromycin combined with peptide at 4 μg/ml): 8 µg/mL | Antibiotic MIC, Erythromycin ([8]; erythromycin combined with peptide at 6 μg/ml): 2 µg/mL | Antibiotic MIC, Erythromycin ([8]; erythromycin combined with peptide at 8 μg/ml): 0.5 µg/mL | Antibiotic MIC, Erythromycin ([8]; erythromycin combined with peptide at 16 μg/ml): 0.125 µg/mL | Antibiotic MIC, Erythromycin ([8]; erythromycin combined with peptide at 32 μg/ml): 0 µg/mL | Antibiotic MIC, Erythromycin ([8]; erythromycin combined with peptide at 64 μg/ml): 0 µg/mL | Antibiotic MIC, Linezolid ([8]; linezolid combined with peptide at 1 μg/ml): >128 µg/mL | Antibiotic MIC, Linezolid ([8]; linezolid combined with peptide at 2 μg/ml): >128 µg/mL | Antibiotic MIC, Linezolid ([8]; linezolid combined with peptide at 4 μg/ml): 16 µg/mL | Antibiotic MIC, Linezolid ([8]; linezolid combined with peptide at 6 μg/ml): 8 µg/mL | Antibiotic MIC, Linezolid ([8]; linezolid combined with peptide at 8 μg/ml): 4 µg/mL | Antibiotic MIC, Linezolid ([8]; linezolid combined with peptide at 16 μg/ml): 2 µg/mL | Antibiotic MIC, Linezolid ([8]; linezolid combined with peptide at 32 μg/ml): 0 µg/mL | Antibiotic MIC, Linezolid ([8]; linezolid combined with peptide at 64 μg/ml): 0 µg/mL | Antibiotic MIC, Vancomycin ([8]; vancomycin combined with peptide at 1 μg/ml): >128 µg/mL | Antibiotic MIC, Vancomycin ([8]; vancomycin combined with peptide at 2 μg/ml): >128 µg/mL | Antibiotic MIC, Vancomycin ([8]; vancomycin combined with peptide at 4 μg/ml): 64 µg/mL | Antibiotic MIC, Vancomycin ([8]; vancomycin combined with peptide at 6 μg/ml): 16 µg/mL | Antibiotic MIC, Vancomycin ([8]; vancomycin combined with peptide at 8 μg/ml): 8 µg/mL | Antibiotic MIC, Vancomycin ([8]; vancomycin combined with peptide at 16 μg/ml): 2 µg/mL | Antibiotic MIC, Vancomycin ([8]; vancomycin combined with peptide at 32 μg/ml): 0 µg/mL | Antibiotic MIC, Vancomycin ([8]; vancomycin combined with peptide at 64 μg/ml): 0 µg/mL | Minimal inhibitory concentration MIC [9]: >128 µg/mL | Minimal inhibitory concentration MIC [10]: 64 µg/mL (≈ 27.7 µM) | Peptide MIC [11, 36]: 0 µg/mL | Peptide MIC ([11]; with Linezolid […] (Conc./MIC 1)): 0 µg/mL | Peptide MIC ([11]; with Vancomycin 1024 μg/ml (Conc./MIC 1)): 0 µg/mL | Peptide MIC [12, 36]: 0 µg/mL | Peptide MIC ([12]; with Linezolid 512 μg/ml (Conc./MIC 1)): 0 µg/mL | Minimal inhibitory concentration MIC [13]: >128 µg/mL
